pIC50: −log10 of the molar value.
Legend:
PCSK9 protein = target: T1, PCSK9 protein (Homo sapiens, UniProt Q8NBP7); test: Binding ability to PCSK9 protein (HTRF); conditions: PCSK9-His, Alexa Fluor 647 probe compound
T1 construct: purchased Sino biology (Sino Biological) 29698-H08H
Description: 1. Experimental objective: To detect the action of compounds to bind PCSK9 protein by an HTRF method.
3. Experimental data processing method: Four-parameter log(inhibitor) vs. response—Variable slope (four parameters) in XLit was used to perform non-linear fitting of the compound concentration and the corresponding inhibition rate, and IC50 was calculated.

[1] = system: PCSK9 secreted by HepG2 cells; test: Effect on the concentration of PCSK9 secreted by HepG2 cells (ELISA); assay type: cell-based; conditions: Homo sapiens, 48 hours, PCSK9 in culture medium by ELISA
Description: 1. Experimental objective: To detect the inhibitory effect of the compounds on PCSK9.
2. Experimental method: • 1) HepG2 cell strain was cultured in the complete culture medium at 37° C., 5% CO2 to 70-90% confluence. • 2) The cells were digested and resuspended in the experimental culture medium, inoculated at 25,000 cells/well/200 μL in a 96-well cell culture plate, and cultured at 37° C. and 5% CO2 for 20-24 hours. • 3) The culture medium was removed from the cell culture plate, and the cell culture plate was washed once by adding 200 ul of the experimental culture medium to each well. • 4) Preparation of positive control compound and compound to be tested: the positive control compound and the compound to be tested were diluted on the compound plate. • 5) The diluted compound was added to the cell culture plate at 250 μL per well and incubated at 37° C. and 5% CO2 for 48 hours. • 6) The cell culture medium was collected at 200 μL per well and cryopreserved at −80° C. for later use. • 7) A sample of the cell culture medium was taken from the −80° C. cryopreservation condition, dissolved, vortexed, and centrifuged for later use. • 8) Preparation of standard curve: corresponding volumes of Dilution buffer were successively added to respective standard tubes, and in the order of the concentrations of 10, 5, 2.5, 1.25, 0.625, 0.313, 0.16, 0 ng/mL, the standard was diluted in series by taking the corresponding volume from the original tube or the last concentration tube. • 9) Preparation of washing liquid: 10x Wash buffer was diluted into 1x with Milli-Q for later use. • 10) According to the standard curve wells and sample wells set according to a plate map, 100 μL/well of the corresponding standards and culture medium samples were added to the wells, with 2 replicate wells. A self-adhesive seal was applied, the plate was placed on a plate shaker at room temperature, gently shaken, uniformly mixed, and incubated for 1 hour. • 11) The plate was placed on the plate washer, the washing liquid was set to 350 μL per well, and the plate was washed 4 times repeatedly. • 12) 100 μL/well of an HRP-conjugated detection antibody was added, a self-adhesive seal was applied, and the plate was placed on the plate shaker, well mixed uniformly, and incubated for 1 hour. • 13) The plate was placed on the plate washer, the washing liquid was set to 350 μL per well, and the plate was washed 4 times repeatedly. • 14) 100 μL/well of Substrate reagent was added, and the plate was placed in the dark, applied with a self-adhesive seal, placed on the plate shaker, well mixed uniformly, and incubated for 10-20 minutes. • 15) 100 μL of Stop solution (1N H2SO4) was added to each well and mixed uniformly. • 16) The optical density (OD) value in each well was measured in sequence at a wavelength of 450 nm by the microplate reader. Detection was carried out within 30 min after the reaction was stopped.
3. Experimental data processing method: After the OD values were read by the microplate reader, the OD value of the 0-concentration standard in the standard group was subtracted from the OD values of the standards, control group, and samples to obtain the actual OD values for these wells. A standard curve was plotted with Graphpad and the concentration of the sample was calculated. If the dilution was performed during the sample detection, the calculated sample concentration was necessarily multiplied by the corresponding dilution ratio in the final calculation, which was the actual concentration of the sample. Inhibition rate=(actual concentration in control−actual concentration in sample)/actual concentration in control*100. According to the inhibition rates corresponding to the different concentrations, IC50 was derived by Graphpad.

[2] = Pharmacokinetic determination in mice (PO 5 mg/kg, IV 1 mg/kg); assay type: in vivo, C57BL/6J mice; conditions: male, C57BL/6J, mouse, plasma, C57 mice, PO administration, 5 mpk; for AUC(0-inf): read-out: Area under the curve AUC0-∞; for half-life: read-out: Half-life t1/2 (converted); for MRT: read-out: Mean residence time MRT; for Cmax: read-out: Plasma concentration Cmax; for Tmax: read-out: Time to peak tmax
Description: 1. Experimental objective: C57BL/6J mice were used as test animals to study the pharmacokinetic behavior of the compounds of the present disclosure in mice (plasma) after oral and intravenous administration.
2.2 Test animals: C57 mice, male, purchased from Shanghai Bk Lab Animal Co., Ltd., with animal production license number (SCXK (Shanghai) 2013-0006 N0.311620400001794).
2.3 Drug preparation: Preparation of oral drug: 10% Solutol HS15
10 g of Solutol HS15 solid was weighed, dissolved in 90 mL of pure water, uniformly mixed, stirred, and ultrasonically treated to form a clear solution. The compound of the present disclosure was weighed and dissolved in this solution, uniformly shaken, and ultrasonically treated for 15 minutes to obtain a colorless clear solution with a concentration of 0.5 mg/mL. Preparation of intravenous drug: 5% DMSO+10% Solutol HS15+85% PBS, the compound of the present disclosure was weighed, 5% DMSO was first added on the basis of the proportion relative to the total volume of administration, and the mixture was vortexed and ultrasonically treated for 2 min until it was completely dissolved; 10% of Solutol HS15 was then added, and the mixture was vortexed and ultrasonically treated for 2 min until it was completely dissolved; and finally, 85% of PBS was added, and the mixture was vortexed, ultrasonically treated for 5 min, and filtered through a 0.22 um filter membrane to obtain a colorless and transparent clear solution with a concentration of 0.2 mg/mL.
2.4 Administration: 3 male C57 mice were fasted overnight and then respectively administered PO at a dose of 5 mg/kg and a volume of 10 mL/kg. 3 male C57 mice were fasted overnight and then respectively administered IV at a dose of 1 mg/kg and a volume of 5 mL/kg.
2.5 Sample collection: Before and after administration of mice, 0.04 mL of blood was collected from the orbit at 0.083 (iv), 0.25, 0.5, 1, 2, 4, 8, and 24 hours, and placed in EDTA-K2 test tubes, which was centrifuged at 6000 rpm at 4° C. for 6 min to separate plasma which was stored at −80° C.; and the […] were fed 4 h after administration.
2.6 Determination results: The final determination results were obtained by using an LCMS/MS method.
3. Experimental results: The main pharmacokinetic parameters were calculated using WinNonlin 6.1.

T1 sequence (Q8NBP7 153-692): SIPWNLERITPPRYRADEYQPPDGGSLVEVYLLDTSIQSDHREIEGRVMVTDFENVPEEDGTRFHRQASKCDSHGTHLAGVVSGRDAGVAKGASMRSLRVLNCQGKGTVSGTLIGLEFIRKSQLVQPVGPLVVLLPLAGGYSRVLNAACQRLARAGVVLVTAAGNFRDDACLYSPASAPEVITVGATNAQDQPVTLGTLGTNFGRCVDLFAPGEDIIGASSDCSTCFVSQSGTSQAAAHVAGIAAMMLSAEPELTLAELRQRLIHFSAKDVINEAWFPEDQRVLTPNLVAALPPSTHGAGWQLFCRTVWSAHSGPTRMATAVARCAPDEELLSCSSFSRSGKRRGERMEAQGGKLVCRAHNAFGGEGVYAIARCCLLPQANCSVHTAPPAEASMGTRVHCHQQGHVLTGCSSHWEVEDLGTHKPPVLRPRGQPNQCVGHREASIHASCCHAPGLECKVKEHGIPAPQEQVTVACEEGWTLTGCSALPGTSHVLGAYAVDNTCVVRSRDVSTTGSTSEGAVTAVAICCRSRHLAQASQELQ

In the case of N#Cc1cnc2c(c1)C(=O)N(c1cnc(N[C@H]3CC[C@H](Nc4nc5cc(C(F)(F)F)ccn5n4)C3)c(F)c1)C2 [Example 147], the pIC50 (PCSK9 protein) was 8.06 and the pIC50 [1] was 6.52.

Work on Cc1cc2c(cn1)C(=O)N(c1ccc(N[C@H]3CC[C@H](Nc4nc5cc(C(F)(F)F)ccn5n4)C3)nc1)C2 [Example 89, 6-methyl-2-(6-(((1S,3S)-3-((7-(trifluoromethyl)-[1,2,4]triazolo[1,5-a]pyridin-2-yl)amino)cyclopentyl)amino)pyridin-3-yl)-1,2-dihydro-3H-pyrrolo[3,4-c]pyridin-3-one] yielded a pIC50 (PCSK9 protein) of 7.98, a pIC50 [1] of 5.40 and an AUC(0-inf) [2] of 34300 ng·h/mL. It also gave a half-life [2] of 2.7 h, an MRT [2] of 3.1 h and a Cmax [2] of 10300 ng/mL. For the same compound, the Tmax [2] was 0.25 h.

Work on N#Cc1nccc2c1CN(c1ccc(N[C@H]3CC[C@H](Nc4nc5cc(C(F)(F)F)ccn5n4)C3)nc1)C2=O [Example 76, 1-carbonyl-2-(6-(((1S,3S)-3-((7-(trifluoromethyl)-[1,2,4]triazolo[1,5-a]pyridin-2-yl)amino)cyclopentyl)amino)pyridin-3-yl)-2,3-dihydro-1H-pyrrolo[3,4-c]pyridine-4-carbonitrile] yielded a pIC50 (PCSK9 protein) of 7.86 and a pIC50 [1] of 5.32.

In the case of Cc1cnc2c(c1)C(=O)N(c1ccc(N[C@H]3CC[C@H](Nc4nc5cc(C(F)(F)F)ccn5n4)C3)nc1)C2 [Example 115], the pIC50 (PCSK9 protein) was 8.00 and the pIC50 [1] was 5.59.

Work on Cc1cn(-c2ccc(N[C@H]3CC[C@H](Nc4nc5cc(C(F)(F)F)ccn5n4)C3)nc2)c(=O)nc1O [Example 111] yielded a pIC50 (PCSK9 protein) of 7.79 and a pIC50 [1] of 4.95.

In the case of Cc1ccc2c(c1)C(=O)N(c1ccc(N[C@H]3CC[C@H](Nc4nc5cc(C(F)(F)F)ccn5n4)C3)nc1)C2 [Example 82, 6-methyl-2-(6-(((1S,3S)-3-((7-(trifluoromethyl)-[1,2,4]triazolo[1,5-a]pyridin-2-yl)amino)cyclopentyl)amino)pyridin-3-yl)isoindolin-1-one], the pIC50 (PCSK9 protein) was 7.93 and the pIC50 [1] was 6.10.

For O=C1c2cc(Cl)cnc2CN1c1ccc(N[C@H]2CC[C@H](Nc3nc4cc(C(F)(F)F)ccn4n3)C2)nc1 [Example 116], the pIC50 (PCSK9 protein) was 7.79 and the pIC50 [1] was 6.30.

For CC(C)(O)c1ccn(-c2ccc(=O)n(-c3ccc(N[C@H]4CC[C@H](Nc5nc6cc(C(F)(F)F)ccn6n5)C4)nc3)c2)n1 [Example 79, 5-(3-(2-hydroxypropan-2-yl)-1H-pyrazol-1-yl)-6′-(((1S,3S)-3-((7-(trifluoromethyl)-[1,2,4]triazolo[1,5-a]pyridin-2-yl)amino)cyclopentyl)amino)-2H-[1,3′-bipyridine]-2-one], the pIC50 (PCSK9 protein) was 7.60 and the pIC50 [1] was 4.82.

O=C1c2ccc(Cl)cc2CN1c1ccc(N[C@H]2CC[C@H](Nc3nc4cc(C(F)(F)F)ccn4n3)C2)nc1 [Example 117] showed a pIC50 (PCSK9 protein) of 7.74 and a pIC50 [1] of 6.40.

Work on O=C1c2cc(F)ccc2CN1c1ccc(N[C@H]2CC[C@H](Nc3nc4cc(C(F)(F)F)ccn4n3)C2)nc1 [Example 83, 6-fluoro-2-(6-(((1S,3S)-3-((7-(trifluoromethyl)-[1,2,4]triazolo[1,5-a]pyridin-2-yl)amino)cyclopentyl)amino)pyridin-3-yl)isoindolin-1-one] yielded a pIC50 (PCSK9 protein) of 7.94 and a pIC50 [1] of 5.96.

With Cc1ccc2c(n1)C(=O)N(c1ccc(N[C@H]3CC[C@H](Nc4nc5cc(C(F)(F)F)ccn5n4)C3)nc1)C2 [Example 91, 2-methyl-6-(6-(((1S,3S)-3-((7-(trifluoromethyl)-[1,2,4]triazolo[1,5-a]pyridin-2-yl)amino)cyclopentyl)amino)pyridin-3-yl)-5,6-dihydro-7H-pyrrolo[3,4-b]pyridin-7-one] the pIC50 (PCSK9 protein) was 7.98 and the pIC50 [1] was 4.89.

N#Cc1ccnc2c1C(=O)N(c1ccc(N[C@H]3CC[C@H](Nc4nc5cc(C(F)(F)F)ccn5n4)C3)nc1)C2 [Example 163] showed a pIC50 (PCSK9 protein) of 8.20 and a pIC50 [1] of 4.97.

Work on Cc1cn(-c2ccc(N[C@H]3CC[C@H](Nc4nc5cc(C(F)(F)F)ccn5n4)C3)nc2)c(=O)nc1N [Example 109] yielded a pIC50 (PCSK9 protein) of 7.79 and a pIC50 [1] of 4.71.

Work on O=C1c2cc(Cl)cnc2CN1c1ccc(N[C@H]2CC[C@H](Nc3nc4cc(OC(F)F)ccn4n3)C2)nc1 [Example 130] yielded a pIC50 [1] of 5.82, an AUC(0-inf) [2] of 57900 ng·h/mL and a half-life [2] of 3.6 h. For the same compound, the MRT [2] was 6.1 h, the Cmax [2] was 5090 ng/mL and the Tmax [2] was 1 h.

Compound Cc1cc2c(cn1)CN(c1ccc(N[C@H]3CC[C@H](Nc4nc5cc(OC(F)F)ccn5n4)C3)nc1)C2=O [Example 99] has a pIC50 [1] of 5.18, an AUC(0-inf) [2] of 27900 ng·h/mL and a half-life [2] of 2.7 h. It also gave an MRT [2] of 3.4 h, a Cmax [2] of 7240 ng/mL and a Tmax [2] of 0.25 h.

Work on N#Cc1cnc2c(c1)C(=O)N(c1cnc(N[C@H]3CC[C@H](Nc4nc5cc(OC(F)F)ccn5n4)C3)c(F)c1)C2 [Example 153] yielded a pIC50 (PCSK9 protein) of 7.91 and a pIC50 [1] of 6.10.

O=C1c2ccc(C3CC3)nc2CN1c1ccc(N[C@H]2CC[C@H](Nc3nc4cc(C(F)(F)F)ccn4n3)C2)nc1 [Example 68, 2-cyclopropyl-6-(6-(((1S,3S)-3-((7-(trifluoromethyl)-[1,2,4]triazolo[1,5-a]pyridin-2-yl)amino)cyclopentyl)amino)pyridin-3-yl)-6,7-dihydro-5H-pyrrolo[3,4-b]pyridin-5-one] showed a pIC50 (PCSK9 protein) of 8.01 and a pIC50 [1] of 5.70.

O=C1c2ccccc2CN1c1ccc(N[C@H]2CC[C@H](Nc3nc4cc(C(F)(F)F)ccn4n3)C2)nc1 [Example 84, 2-(6-(((1S,3S)-3-((7-(trifluoromethyl)-[1,2,4]triazolo[1,5-a]pyridin-2-yl)amino)cyclopentyl)amino)pyridin-3-yl)isoindolin-1-one] showed a pIC50 (PCSK9 protein) of 8.20 and a pIC50 [1] of 5.33.

In the case of Cc1cnc2c(c1)CN(c1ccc(N[C@H]3CC[C@H](Nc4nc5cc(C(F)(F)F)ccn5n4)C3)nc1)C2=O [Example 94], the pIC50 (PCSK9 protein) was 8.02 and the pIC50 [1] was 4.69.

From US12612403B2, “Nitrogen-containing heterocyclic derivative inhibitor, and preparation method therefor and use thereof” (SHANGHAI HANSOH BIOMEDICAL CO., LTD., priority 2024, dated 2026)
